The assay deals with T1, Kinesin-like protein KIF11 (Homo sapiens, UniProt P52732).
T1 sequence (P52732 whole entry): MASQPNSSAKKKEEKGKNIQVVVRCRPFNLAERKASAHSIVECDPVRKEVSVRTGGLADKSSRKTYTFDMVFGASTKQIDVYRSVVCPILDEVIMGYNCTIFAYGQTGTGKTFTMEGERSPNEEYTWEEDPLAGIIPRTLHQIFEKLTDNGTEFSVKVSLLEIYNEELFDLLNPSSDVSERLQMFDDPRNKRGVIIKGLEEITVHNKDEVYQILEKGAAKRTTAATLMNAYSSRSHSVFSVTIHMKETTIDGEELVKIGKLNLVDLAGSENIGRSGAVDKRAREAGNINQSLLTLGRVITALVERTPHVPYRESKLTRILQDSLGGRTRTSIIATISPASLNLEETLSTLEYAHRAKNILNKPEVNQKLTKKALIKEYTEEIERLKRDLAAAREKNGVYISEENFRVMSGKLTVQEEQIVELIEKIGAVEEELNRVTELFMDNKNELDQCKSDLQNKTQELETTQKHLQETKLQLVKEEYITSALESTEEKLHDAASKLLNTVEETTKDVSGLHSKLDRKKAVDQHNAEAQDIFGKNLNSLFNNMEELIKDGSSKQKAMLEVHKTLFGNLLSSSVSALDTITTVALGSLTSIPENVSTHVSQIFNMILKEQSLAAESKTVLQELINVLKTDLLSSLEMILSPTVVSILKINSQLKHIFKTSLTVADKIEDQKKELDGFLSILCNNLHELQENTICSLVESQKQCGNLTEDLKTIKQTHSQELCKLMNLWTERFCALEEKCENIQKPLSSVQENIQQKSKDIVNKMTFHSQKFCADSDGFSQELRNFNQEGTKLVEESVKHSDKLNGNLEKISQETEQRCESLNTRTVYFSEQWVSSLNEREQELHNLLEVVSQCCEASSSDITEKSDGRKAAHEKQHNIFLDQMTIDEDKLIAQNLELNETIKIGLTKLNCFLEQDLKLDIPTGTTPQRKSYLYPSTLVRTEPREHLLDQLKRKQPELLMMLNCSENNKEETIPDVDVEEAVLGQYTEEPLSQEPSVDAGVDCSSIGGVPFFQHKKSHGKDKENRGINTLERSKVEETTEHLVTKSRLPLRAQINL
The experiment in a line: Binding Assay. The text has this:
Binding assay using temperature-dependent circular dichroism (TdCD). In TdCD, the loss of protein secondary structure was monitored as a function of temperature. Proteins bound with ligand become more resistant to thermal unfolding compared to the unliganded protein because of the additional stabilization interactions created between the ligand and protein.
Take `NC(=O)c1ccc2c(c1)nc(Nc1ccc(S(N)(=O)=O)cc1)n2Cc1ccccc1C(F)(F)F` [KSP Inhibitor, 4e]: the affinity, expressed as Kd, was 0.6 µM. The result for `CS(=O)(=O)c1ccc(Nc2nc3cc(C(N)=O)ccc3n2Cc2ccccc2C(F)(F)F)cc1` [KSP Inhibitor, 4b] reads 2.5 µM. With `COc1ccc(Nc2nc3cc(C(=O)O)ccc3n2Cc2ccccc2OC(F)(F)F)cc1` [KSP Inhibitor, 4g], the Kd came out at 3.4 µM. The result for `CSc1ccc(Nc2nc3cc(C(N)=O)ccc3n2Cc2ccccc2C(F)(F)F)cc1` [KSP Inhibitor, 4a] reads 2 µM; that for `O=C(O)c1ccc2c(c1)nc(Nc1ccc(OCc3ccccc3)cc1)n2Cc1ccccc1C(F)(F)F` [KSP Inhibitor, 4c], 14 µM; that for `COc1ccc(Nc2nc3cc(C(=O)O)ccc3n2Cc2ccccc2OC)cc1` [KSP Inhibitor, 4d], 5 µM. The result for `COc1ccc(Nc2nc3cc(C(=O)O)ccc3n2Cc2ccccc2C(F)(F)F)cc1` reads 1.2 µM.

For the origin of these results see BindingDB's records for doi:10.1021/bi1005283 (Merck Research Laboratories, 2010).
